PMC6271477, “Effects of Single Amino Acid Substitution on the Biophysical Properties and Biological Activities of an Amphipathic α-Helical Antibacterial Peptide Against Gram-Negative Bacteria” (Molecules, 2014)

How the values were obtained:
[1] = Analytical RP-HPLC retention time as a measure of peptide hydrophobicity; format: physicochemical; conditions: RP-HPLC at 25 °C, Zorbax 300 SB-C8 column, linear AB gradient, A 0.1% aqueous TFA, B 0.1% TFA in acetonitrile, 1 mL/min, detection at 210 nm
Protocol: Among substitutions, the retention times ranged from 32.2 min (peptide V16K) to 40.4 min (peptide V16L), which reflect the pure effects of single amino acid substitutions. Thus, the retention times of peptides reflect the relative hydrophobicity of side chains. Consistent with previous studies, the hydrophobicity of peptide analogs was generally in the following order: Lys < Gly < Ser < Ala < Val < Leu. Glu-substituted peptide was an exception, as it contains a negatively-charged side chain and this should decrease the hydrophobicity of the peptide dramatically.
Peptides were analyzed on a Shimadzu LC-20A HPLC using a Zorbax 300 SB-C8 column (150 ° 4.6 mm i.d., 5 μm particle size, 300 Å pore size) from Agilent Technologies using a linear AB gradient and a flow rate of 1 mL/min, where solvents A and B were as described above. Absorbance signals of peptides were detected at 210 nm.

human red blood cells = assay: Hemolytic activity; format: cell-based; conditions: peptide 1,000 μg/mL, 1% human erythrocytes in PBS, 37 °C for 4 h, absorbance at 540 nm, 100% = distilled water
Protocol: Peptide samples were serially diluted using phosphate-buffered saline (PBS) in 96-well plates (round-bottom) to give a volume of 60 μL of the sample solution in each well. Human erythrocytes that had been anticoagulated using EDTAK2 were collected by centrifugation (1,000 ×g) for 5 min, washed twice with PBS, then diluted to a concentration of 2% in PBS. The erythrocytes (60 μL of 2% solution) were added to each well to achieve a final concentration of 1% human erythrocytes per well, and the reactions were incubated at 37 °C for 4 h. The plates were then centrifuged for 10 min at 3000 rpm and the supernatant (80 μL) was transferred to a 96-well plate (flat-bottom). The release of hemoglobin was determined by measuring the absorbance of the supernatant at 540 nm. Peptide samples were diluted in a 2-fold series to determine the minimum concentration at which hemolysis occurred. Erythrocytes in PBS and distilled water were used as controls of 0% and 100% hemolysis, respectively. Hemolysis percentage was calculated by the absorbance of peptide at the concentration of 1,000 μg/mL and compared with the 100% hemolysis.

[2] = Dansyl-polymyxin B displacement assay (LPS binding affinity); set-up: species or system E. coli; conditions: LPS 3 μg/mL in 5 mM HEPES pH 7.2, 25 °C, fluorescence; result in words, Figure 5
Protocol: As most of the outer membrane is LPS, the affinity of peptide analogs to LPS of E. coli was further detected by dansyl-polymyxin B displacement assay. As it is the polar face of the molecule that binds LPS, and all the peptides V16A, V16S, V16G and P have the same number of positively charged residues on the polar face, they would be expected to have similar effects on LPS affinity (Figure 5).
Dansyl-polymyxin B was synthesized, purified and quantified as reported. It was then dissolved in HEPES buffer (5 mM, pH 7.2) at the concentration of 100 μM and the final concentration of LPS is 3 μg/mL in the same buffer. Fluorescence measurements were run on a Shimadzu RF-5301 spectrofluorometer using a 3 mL quartz cuvette with an excitation wavelength of 350 nm and an emission wavelength of 420 nm at 25 °C. For displacement assay, 15 μL of peptide solution (10 mg/mL) was titrated into the cuvette containing 2 mL LPS and 0.25 mL dansyl-polymyxin B, and the decrease in the observed fluorescence (percent inhibition) was recorded.

## CC[C@H](C)[C@H](NC(=O)[C@H](C)NC(=O)[C@H](CCCCN)NC(=O)[C@H](CC(C)C)NC(=O)[C@H](C)NC(=O)[C@@H](NC(=O)[C@H](Cc1cnc[nH]1)NC(=O)[C@H](CC(C)C)NC(=O)[C@@H](NC(=O)[C@@H](NC(=O)[C@H](CCCCN)NC(=O)[C@H](CCCCN)NC(=O)[C@H](C)NC(=O)[C@H](CO)NC(=O)[C@H](CCCCN)NC(=O)[C@H](Cc1ccccc1)NC(=O)[C@@H](NC(=O)[C@H](CCCCN)NC(=O)[C@H](CC(C)C)NC(=O)[C@H](Cc1ccccc1)NC(=O)[C@H](CO)NC(=O)[C@H](CCCCN)NC(=O)[C@H](Cc1c[nH]c2ccccc12)NC(=O)[C@H](CCCCN)NC(C)=O)[C@@H](C)O)[C@@H](C)O)C(C)C)[C@@H](C)O)C(=O)N[C@@H](CO)C(=O)N[C@@H](CO)C(N)=O [P]
[1]
  tR, retention time during RP-HPLC (relative hydrophobicity): 38.2 min
Human red blood cells
  Hemolysis Percentage: 28.3%

## Ac-KWKSFLKTFKSAKKTKLHTALKAISS-NH2 [Peptide V16K]
[1]
  tR, retention time during RP-HPLC (relative hydrophobicity): 32.2 min
[2]
  Affinity to LPS (inhibition of dansyl-polymyxin B binding): more affinity than the Ser- or Gly-substituted peptides
